# Test results from ChEMBL document CHEMBL3808314, “Discovery and Optimization of Potent, Selective, and in Vivo Efficacious 2-Aryl Benzimidazole BCATm Inhibitors” (ACS Med Chem Lett, 2016).
# Active and inactive are the calls of the source. No cut-off for these calls is given here.
# How the values were obtained:
# [1] = Oral bioavailability in mouse at 5 mg/kg; format: ADME, organism-based; conditions: in vivo
# [2] = molecular target: T1, Branched-chain-amino-acid aminotransferase, cytosolic (Homo sapiens, UniProt P54687); test: Inhibition of BCATc (unknown origin)
# T1 sequence (P54687 whole entry): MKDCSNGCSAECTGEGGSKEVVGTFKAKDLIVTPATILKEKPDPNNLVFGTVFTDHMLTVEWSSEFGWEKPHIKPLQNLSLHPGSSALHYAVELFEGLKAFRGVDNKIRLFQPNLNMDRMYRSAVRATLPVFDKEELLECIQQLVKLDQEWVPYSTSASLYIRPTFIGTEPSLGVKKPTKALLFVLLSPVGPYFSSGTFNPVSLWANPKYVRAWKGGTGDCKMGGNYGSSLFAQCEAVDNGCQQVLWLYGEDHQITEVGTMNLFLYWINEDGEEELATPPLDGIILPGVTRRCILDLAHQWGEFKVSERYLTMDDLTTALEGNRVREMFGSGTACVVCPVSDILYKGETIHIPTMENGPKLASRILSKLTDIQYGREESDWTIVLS
# [3] = AUC (0 to infinity) in mouse at 5 mg/kg, po; format: ADME, organism-based; design: dose 5 mg/kg, route oral, time infinity; conditions: in vivo
# [4] = Plasma protein binding in mouse; format: ADME, cell-free; conditions: read-out: PPB (converted)
# [5] = Cmax in mouse at 5 mg/kg, po; format: ADME, organism-based; design: dose 5 mg/kg, route oral; conditions: in vivo
# [6] = Clearance in mouse blood at 1 mg/kg, iv; format: ADME, organism-based
# [7] = Volume of distribution at steady state in mouse at 1 mg/kg, iv; format: ADME, organism-based; conditions: in vivo, read-out: Vdss
# [8] = Half life of compound in mouse at 1 mg/kg, iv; format: ADME, organism-based; conditions: in vivo
# Mus musculus [9] = test: Increase in valine level in C57Black/6J mouse serum at 300 mg/kg, po administered 5 hrs post fasting state followed by refeeding of amino acid mixture at 30 mins post dose measured after 1 hr by HPLC method; format: functional, organism-based
# Mus musculus [10] = test: Increase in isoluecine level in po dosed C57Black/6J mouse serum administered 5 hrs post fasting state followed by refeeding of amino acid mixture at 6 hrs post dose measured after 1 hr by HPLC method relative to vehicle control; format: functional, organism-based
# Mus musculus [11] = test: Increase in isoluecine level in C57Black/6J mouse serum at 300 mg/kg, po administered 5 hrs post fasting state followed by refeeding of amino acid mixture at 30 mins post dose measured after 1 hr by HPLC method; format: functional, organism-based
# Mus musculus [12] = test: Increase in valine level in po dosed C57Black/6J mouse serum administered 5 hrs post fasting state followed by refeeding of amino acid mixture at 6 hrs post dose measured after 1 hr by HPLC method relative to vehicle control; format: functional, organism-based
# Mus musculus [13] = test: Increase in luecine level in po dosed C57Black/6J mouse serum administered 5 hrs post fasting state followed by refeeding of amino acid mixture at 6 hrs post dose measured after 1 hr by HPLC method relative to vehicle control; format: functional, organism-based
# Mus musculus [14] = test: Increase in luecine level in C57Black/6J mouse serum at 300 mg/kg, po administered 5 hrs post fasting state followed by refeeding of amino acid mixture at 30 mins post dose measured after 1 hr by HPLC method; format: functional, organism-based
bioavailability [1],IC50 [2],AUC(0-inf) [3],fraction unbound [4],Cmax [5],clearance [6],Vd [7],half-life [8],Structure (SMILES),Activity (Mus musculus [9]),Activity (Mus musculus [10]),Activity (Mus musculus [11]),Activity (Mus musculus [12]),Activity (Mus musculus [13]),Activity (Mus musculus [14])
10%,1.26 µM,338 ng·h/mL,0.005,129 ng/mL,23 mL/min/kg,1.3 L/kg,1.4 h,CNC(=O)c1ccc2c(c1)nc(-c1ccccc1SC)n2[C@@H]1CCC[C@H](NC(=O)c2ccc(Br)s2)C1 (relative stereo),,,,,,
28%,3.98 µM,5810 ng·h/mL,0.029,1650 ng/mL,4 mL/min/kg,0.9 L/kg,3.7 h,CNC(=O)c1ccc2c(c1)nc(-c1ccccn1)n2[C@@H]1CCC[C@H](NC(=O)c2ccc(Br)s2)C1 (relative stereo),Active,Dose-dependent effect,Active,Dose-dependent effect,Dose-dependent effect,Active
